{
  "source": "ChEMBL document CHEMBL3871291",
  "about": "“Anthraquinones from Morinda longissima and their insulin mimetic activities via AMP-activated protein kinase (AMPK) activation” (Bioorg Med Chem Lett, 2017)",
  "key": {"Mus musculus [1]": {"species": "Mus musculus", "assay": "Activation of AMPK in mouse 3T3L1 adipocytes assessed as increase in 2-NBDG uptake at 10 uM after 90 mins by fluorescence assay", "assay_type": "cell-based"}, "[2]": {"assay": "Effect on total AMPK expression in mouse C2C12 cells at 10 uM after 2 hrs by Western blot analysis", "assay_type": "ADME, cell-based", "conditions": "c2c12, 2 h"}, "C2C12 [3]": {"system": "C2C12", "assay": "Induction of AMPK alpha phosphorylation at Thr172 residue in mouse C2C12 cells at 10 uM after 2 hrs by Western blot analysis", "assay_type": "cell-based"}, "Mus musculus [4]": {"species": "Mus musculus", "assay": "Activation of AMPK in mouse 3T3L1 adipocytes assessed as increase in 2-NBDG uptake at 10 uM after 90 mins by fluorescence microscopy", "assay_type": "cell-based"}, "C2C12 [5]": {"system": "C2C12", "assay": "Activation of AMPK in mouse C2C12 cells assessed as increase in ACC phosphorylation at Ser79 residues at 1 mM after 1 hr by Western blot analysis", "assay_type": "cell-based"}, "C2C12 [6]": {"system": "C2C12", "assay": "Activation of AMPK in mouse C2C12 cells assessed as increase in ACC phosphorylation at Ser79 residues at 10 uM after 2 hrs by Western blot analysis", "assay_type": "cell-based"}, "Mus musculus [7]": {"species": "Mus musculus", "assay": "Cytotoxicity against mouse C2C12 cells assessed as decrease in cell viability at 10 uM after 2 to 24 hrs by MTT assay", "assay_type": "toxicity, cell-based", "conditions": "c2c12, 10 µM"}, "Mus musculus [8]": {"species": "Mus musculus", "assay": "Cytotoxicity against mouse 3T3L1 adipocytes assessed as decrease in cell viability at 10 uM after 2 to 24 hrs by MTT assay", "assay_type": "toxicity", "conditions": "3t3-l1, 10 µM"}},
  "note": "The source made the active and inactive calls. No cut-off for these calls is given here.",
  "data": [
    {"molecule": "COCc1c(O)cc2c(c1OC)C(=O)c1ccccc1C2=O", "values": [
      {"measurement": "Activity", "setting": "Mus musculus [1]", "result": "Active"}
    ]},
    {"molecule": "COc1cc2c(cc1C)C(=O)c1ccccc1C2=O", "values": [
      {"measurement": "Activity", "setting": "Mus musculus [1]", "result": "Active"}
    ]},
    {"molecule": "Cc1ccc2c(c1)C(=O)c1ccccc1C2=O", "note": "[TECTOQUINONE]", "values": [
      {"measurement": "Activity", "setting": "[2]", "result": "Non-Toxic"},
      {"measurement": "Activity", "setting": "C2C12 [3]", "result": "Active"},
      {"measurement": "Activity", "setting": "Mus musculus [4]", "result": "Active"},
      {"measurement": "Activity", "setting": "Mus musculus [1]", "result": "Active"}
    ]},
    {"molecule": "COc1c(O)c(O)cc2c1C(=O)c1ccccc1C2=O", "values": [
      {"measurement": "Activity", "setting": "Mus musculus [1]", "result": "Active"}
    ]},
    {"molecule": "COCc1c(OC)cc2c(c1OC)C(=O)c1ccccc1C2=O", "values": [
      {"measurement": "Activity", "setting": "Mus musculus [1]", "result": "Active"}
    ]},
    {"molecule": "NC(=O)c1ncn([C@@H]2O[C@H](CO)[C@@H](O)[C@H]2O)c1N", "values": [
      {"measurement": "Activity", "setting": "C2C12 [5]", "result": "Active"}
    ]},
    {"molecule": "CCCCOCc1c(O)cc2c(c1O)C(=O)c1ccccc1C2=O", "values": [
      {"measurement": "Activity", "setting": "Mus musculus [1]", "result": "Active"}
    ]},
    {"molecule": "Cc1cc2c(cc1O)C(=O)c1ccccc1C2=O", "values": [
      {"measurement": "Activity", "setting": "Mus musculus [1]", "result": "Active"}
    ]},
    {"molecule": "COc1cc2c(c(O)c1COCCC(C)C)C(=O)c1ccccc1C2=O", "values": [
      {"measurement": "Activity", "setting": "[2]", "result": "Non-Toxic"},
      {"measurement": "Activity", "setting": "C2C12 [6]", "result": "Active"},
      {"measurement": "Activity", "setting": "C2C12 [3]", "result": "Active"},
      {"measurement": "Activity", "setting": "Mus musculus [7]", "result": "Non-Toxic"},
      {"measurement": "Activity", "setting": "Mus musculus [4]", "result": "Active"},
      {"measurement": "Activity", "setting": "Mus musculus [8]", "result": "Non-Toxic"},
      {"measurement": "Activity", "setting": "Mus musculus [1]", "result": "Active"}
    ]},
    {"molecule": "COc1c2c(cc3c1C(=O)c1ccccc1C3=O)OC(C)(C)OC2", "values": [
      {"measurement": "Activity", "setting": "[2]", "result": "Non-Toxic"},
      {"measurement": "Activity", "setting": "C2C12 [6]", "result": "Active"},
      {"measurement": "Activity", "setting": "C2C12 [3]", "result": "Active"},
      {"measurement": "Activity", "setting": "Mus musculus [7]", "result": "Non-Toxic"},
      {"measurement": "Activity", "setting": "Mus musculus [4]", "result": "Active"},
      {"measurement": "Activity", "setting": "Mus musculus [8]", "result": "Non-Toxic"},
      {"measurement": "Activity", "setting": "Mus musculus [1]", "result": "Active"}
    ]},
    {"molecule": "COc1c(C)c(O)cc2c1C(=O)c1ccccc1C2=O", "values": [
      {"measurement": "Activity", "setting": "Mus musculus [1]", "result": "Active"}
    ]}
  ]
}
